Like-named read-outs stand apart in the source and are kept apart here.
Experiments:
[1] = tested on: VSV-ΔG SARS CoV-2 S pseudovirus; type: cell-based
[2] = MTT assay (cell survival); conditions: monkey, vero cells
Procedure: (§1) Also, controls (solvent, Staurosporin (1 µM)) were prepared. Supernatants of cells were removed and substances applied for 8h, 24h and 48h at 37°C. • On day 2-4: fresh MTT [3-(4,5-Dimethylthiazol-2yl)-2,5-diphenyl-tetrazolium-bromid] was diluted in PBS to a final concentration of 5 mg/ml and 25 µl/well of MTT-solution were directly added to the wells and incubated for 1 h at 37°C. • MTT supernatant was removed and cells were lysed by 50 µl/well of 100 % DMSO and incubated for 1-5 minutes at room temperature. • Measurements were done at 562 nm in a photometer and % cell survival were calculated as = 100 × OD (sample) / OD (control).

SARS CoV-2 = type: cell-based
in vitro = conditions: monkey, vero cells
Procedure: as §1

[3] = human, in vivo, iv; cited from earlier work

With `CC(C)=CCC[C@]1(C)[C@@H](CC=C(C)C)C[C@]2(CC=C(C)C)C(=O)C(CC=C(C)C)=C(O)[C@@]1(C(=O)C(C)C)C2=O` [Hyperforin, hyperforin, reference compound] the “impact on the VSV pseudovirus” value [1] was “did not have comparable impact”.
With `Cc1cc(O)c2c(=O)c3c(O)cc(O)c4c5c(O)cc(O)c6c(=O)c7c(O)cc(CO)c8c1c2c(c34)c(c65)c78` [Pseudohypericin, pseudohypericin] the “inhibition of the VSV pseudovirus” value ([1]; 1µg/ml) was “clearly inhibited” and the MNTC [2] was 1 µg/mL.
In the case of `Oc1cc(O)c2c(c1)O[C@H](c1ccc(O)c(O)c1)[C@H](O)[C@H]2c1c(O)cc(O)c2c1O[C@H](c1ccc(O)c(O)c1)[C@H](O)[C@H]2c1c(O)cc(O)c2c1O[C@H](c1ccc(O)c(O)c1)[C@H](O)C2` [Procyanidin C1, reference compound], the “effect on the VSV pseudovirus” value [1] is reported as “no significant inhibition” and the MNTC [2] is reported as 50 µM.
In the case of `Cc1cc(O)c2c(=O)c3c(O)cc(O)c4c5c(O)cc(O)c6c(=O)c7c(O)cc(C)c8c1c2c(c34)c(c78)c65` [Hypericin, hypericin], the “inhibition of the VSV pseudovirus” value [1] is reported as “clearly inhibited”, the “viral load in diseased cells (PFU/ml)” value (SARS CoV-2) is reported as “dramatically lowers the viral load” and the MNTC (in vitro) is reported as 1 µg/mL. The “initial peak plasma levels” value [3] was 29.5 ng/mL.
